The source of these data is patent US20230135894A1, “MK2 DEGRADERS AND USES THEREOF” (Kymera Therapeutics, Inc., priority 2021, published 2023).

Test [1] addresses T1, MK2 (Homo sapiens, UniProt P49137). As to the kind of experiment: MK2 degradation in human SW1353 cells (MSD, 24 h). As to conditions: for Dmax: read-out: MK2 MSD SW 1353 24 h Dmax %; for DC50: read-out: MK2 MSD SW1353 degradation 24 h GMean External Abs DC50. In kind it is cell-based. Also noted: endogenous in cells; host or cells: SW-1353 (ATCC HTB-94). The protocol: MK2 Degradation in Human SW1353 Cells
The human chondrocyte cancer cell line SW-1353 (ATCC(HTB-94)) was cultured in 96 well plates (Corning 3894) at a density of 200,000 cells per well in 100 microlitres in complete growth medium of Leibovitz's L-15 Medium (Gibco) pus 10% fetal Bovine Serum (Corning) and Penicillin/Streptomycin (SolarBio) at 37 degrees Celsius. A serial dilution of each compound (usually 3 to 5 fold serial dilutions up to 10 separate concentration points) was added to individual wells from a 10 millimolar stock solution, at a background concentration of 0.1% DMSO and the cells were shaken at 600 rpm for 5 minutes and then were cultured for 24 hours at 37 degrees Celsius. Separately, a custom MSD (MesoScaleDiscovery, L15XA-3) plate for detection of human MK2 was prepared by coating the plate with the commercial AbCam ab247272 reagent in 1×Phosphate Buffered Saline at 40 microlitres per well and incubated at 4 degrees Celsius overnight. The next day, the MSD plate was washed with 150 microlitres of Tween buffered saline, blocked with MSD blocking buffer (3% Blocker A from MSD), and washed again.
(§1) The cell plate was centrifuged at 3,200 g for 5 minutes and the supernatant was discarded and 100 microlitres of RIPA lysis buffer (containing proteinase inhibitors, Boston BioProducts BP-115D) was added and the plate was sealed and shaken on ice for 20 minutes. The plate was centrifuged as before and 70 microlitres of sample lysate was added to the MSD plates and they were shaken at room temperature for 1 hour at 600 rpm. The MSD plate was washed 3 times as before and then the primary MK2 detection antibody (Santa Cruz sc-100393) was added at a final concentration of 1 microgram per ml at 25 microlitres per well and shaken at room temperature for 1 hour at 600 rpm.
(§2) After 3 more washes, the secondary detection antibody (SULFO-Tag anti rabbit antibody R32AB-5) was added at a final concentration of 1 microgram per ml at 25 microlitres per well and shaken at room temperature for 1 hour at 600 rpm. After 3 more washes, the 1×MSD (diluted from 5× concentrate with water) reading buffer was added at 150 microlitres per well and read on the MSD instrument Meso Sector S 600.
(§3) The inhibition/degradation curves and DC50 values were plotted and calculated using XL Fit (version v5.3.1.3) using equation 201 and a 4 parameter logistic model whereby fit=(A+((B−A)/(1+((x/C)D))) where A is the Bottom and B is the Top and C is the IC50 and D is the slope and high C is the signal for the DMSO treated cells and Low C is the signal is the signal for the lysis buffer.

The target in test [2] is T1, MK2. The experiment in a line: MK2 degradation in human THP-1 monocytic cells (MSD, 24 h). As to conditions: for Dmax: THP-1, THP-1 cells; for DC50: THP-1 cells, read-out: MK2 MSD THP-1 degradation 24 h GMean External Abs DC50. Also noted: endogenous in cells. In kind it is cell-based. The protocol: MK2 Degradation in Human THP-1 Monoctyic Cells
The human monocytic cancer cell line THP-1 (ATCC (TIB-202)) was cultured in 96 well plates (Corning 3894) at a density of 200,000 cells per well in 100 microlitres in complete growth medium of RPMI 1640 (Gibco) pus 10% fetal Bovine Serum (Corning) and Penicillin/Streptomycin (SolarBio) at 37 degrees Celsius and 5% CO2. A serial dilution of each compound (usually 3 to 5 fold serial dilutions up to 10 separate concentration points) was added to individual wells from a 10 millimolar stock solution, at a background concentration of 0.1% DMSO and the cells were shaken at 600 rpm for 5 minutes and then were cultured for 24 hours at 37 degrees Celsius and 5% carbon dioxide. Separately, a custom MSD (MesoScaleDiscovery, L15XA-3) plate for detection of human MK2 was prepared by coating the plate with the commercial AbCam ab247272 reagent in 1×Phosphate Buffered Saline at 40 microlitres per well and incubated at 4 degrees Celsius overnight. The next day, the MSD plate was washed with 150 microlitres of Tween buffered saline, blocked with MSD blocking buffer (3% Blocker A from MSD), and washed again.
as §1, §2, §3

T1 sequence (P49137 whole entry): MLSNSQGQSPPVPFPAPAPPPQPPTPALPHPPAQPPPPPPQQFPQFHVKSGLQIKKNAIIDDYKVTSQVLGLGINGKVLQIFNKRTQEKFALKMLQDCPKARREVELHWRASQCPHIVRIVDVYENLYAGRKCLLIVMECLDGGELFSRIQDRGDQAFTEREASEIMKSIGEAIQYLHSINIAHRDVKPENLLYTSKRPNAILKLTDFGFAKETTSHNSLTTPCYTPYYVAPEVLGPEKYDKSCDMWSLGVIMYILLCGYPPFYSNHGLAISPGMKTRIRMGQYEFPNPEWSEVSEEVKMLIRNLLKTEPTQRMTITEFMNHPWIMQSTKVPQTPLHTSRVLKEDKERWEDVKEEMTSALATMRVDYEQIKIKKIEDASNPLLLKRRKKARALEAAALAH

With `CN1CC2(CNC(=O)c3c2[nH]c2c3CCc3cnc(-c4ccc(CN5CCC(OCC#Cc6ccc7c(c6)n(C)c(=O)n7C6CCC(=O)NC6=O)CC5)cc4F)cc3-2)C1` (stereo not shown) [Compound I-1], the Dmax in test [1] and in test [2] was below 50% throughout. The DC50 in test [1] and in test [2] was above 100 nM throughout.
For `CN1CC2(CNC(=O)c3c2[nH]c2c3CCc3cnc(-c4ccc(CN5CCC(OCC#Cc6cccc7c6n(C)c(=O)n7C6CCC(=O)NC6=O)CC5)cc4F)cc3-2)C1` (stereo not shown) [Compound I-2], the Dmax in test [1] and in test [2] was below 50% throughout. The DC50 in test [1] and in test [2] was above 100 nM each time.
With `C[C@@H]1CNc2c(sc3ccc4nc(-c5cccc(N6CCN(C(=O)COCCOCCc7cccc8c7n(C)c(=O)n8C7CCC(=O)NC7=O)CC6)c5)ccc4c23)C(=O)N1` (stereo partly shown) [Compound I-34], in test [1], the Dmax is above 75% and the DC50 is below 1 nM. In test [2], the Dmax was above 75% and the DC50 is below 1 nM.
As for `C[C@@H]1CNc2c(sc3ccc4nc(-c5cccc(N6CCN(C(=O)COCCOCCOCCOCCc7ccc8c(c7)n(C)c(=O)n8C7CCC(=O)NC7=O)CC6)c5)ccc4c23)C(=O)N1` (stereo partly shown) [Compound I-36], in test [1], the Dmax is above 75% and the DC50 is 1 to 10 nM. Further, in test [2], the Dmax is above 75% and the DC50 was in the range of 1 to 10 nM.
In the case of `C[C@@H]1CNc2c(sc3ccc4nc(-c5ccc(N6CCN(C(=O)COCCOCCOCCOCCc7ccc8c(c7)n(C)c(=O)n8C7CCC(=O)NC7=O)CC6)cc5)ccc4c23)C(=O)N1` (stereo partly shown) [Compound I-43], the Dmax in test [1] and in test [2] was above 75% throughout. Further, the DC50 in test [1] and in test [2] was below 1 nM throughout.
As for `C[C@@H]1CNc2c(sc3ccc4nc(-c5cccc(C#CCCNC(=O)CCCCCCCCCc6ccc7c(c6)n(C)c(=O)n7C6CCC(=O)NC6=O)c5)ccc4c23)C(=O)N1` (stereo partly shown) [Compound I-45], the Dmax in test [1] and in test [2] was above 75% each time. The DC50 in test [1] and in test [2] was 10 to 100 nM throughout.
In the case of `C[C@@H]1CNc2c(sc3ccc4nc(-c5cccc(C#CCCNC(=O)CCCCCCCc6cccc7c6n(C)c(=O)n7C6CCC(=O)NC6=O)c5)ccc4c23)C(=O)N1` (stereo partly shown) [Compound I-48], in test [1], the Dmax is above 75% and the DC50 was in the range of 1 to 10 nM. In addition, in test [2], the Dmax was above 75% and the half-maximal degradation concentration (DC50) was 10 to 100 nM.
As for `C[C@@H]1CNc2c(sc3ccc4nc(-c5cccc(C#CCCNC(=O)COCCOCCc6ccc7c(c6)n(C)c(=O)n7C6CCC(=O)NC6=O)c5)ccc4c23)C(=O)N1` (stereo partly shown) [Compound I-49], in test [1], the Dmax was above 75% and the DC50 is 1 to 10 nM. Moreover, in test [2], the Dmax was above 75% and the DC50 lay within 1 to 10 nM.
`C[C@@H]1CNc2c(sc3ccc4nc(-c5cccc(C#CCNC(=O)COCCOCCc6cccc7c6n(C)c(=O)n7C6CCC(=O)NC6=O)c5)ccc4c23)C(=O)N1` (stereo partly shown) [Compound I-50]: the Dmax in test [1] and in test [2] was above 75% in each case. Moreover, the DC50 in test [1] and in test [2] was 1 to 10 nM in each case.
For the molecule `C[C@@H]1CNc2c(sc3ccc4nc(-c5cccc(C#CCCNC(=O)COCCOCCOCCOCCc6ccc7c(c6)n(C)c(=O)n7C6CCC(=O)NC6=O)c5)ccc4c23)C(=O)N1` (stereo partly shown) [Compound I-51], in test [1], the Dmax was above 75% and the 50% degradation concentration (DC50) lay within 1 to 10 nM. Also, in test [2], the Dmax is above 75% and the DC50 was in the range of 1 to 10 nM.
As for `C[C@@H]1CNc2c(sc3ccc4nc(-c5ccc(C#CCCNC(=O)CCCCCCCCCc6ccc7c(c6)n(C)c(=O)n7C6CCC(=O)NC6=O)cc5)ccc4c23)C(=O)N1` (stereo partly shown) [Compound I-53], in test [1], the Dmax is above 75% and the DC50 was 10 to 100 nM. In test [2], the Dmax lay within 50 to 75% and the DC50 is 10 to 100 nM.
With `C[C@@H]1CNc2c(sc3ccc4nc(-c5ccc(C#CCCNC(=O)CCCCCCCCCc6cccc7c6n(C)c(=O)n7C6CCC(=O)NC6=O)cc5)ccc4c23)C(=O)N1` (stereo partly shown) [Compound I-54], in test [1], the Dmax was above 75%. Moreover, the DC50 in test [2] is 10 to 100 nM.
Consider `C[C@@H]1CNc2c(sc3ccc4nc(-c5ccc(C#CCCNC(=O)CCCCCCCc6ccc7c(c6)n(C)c(=O)n7C6CCC(=O)NC6=O)cc5)ccc4c23)C(=O)N1` (stereo partly shown) [Compound I-55], for which the Dmax in test [1] and in test [2] was above 75% throughout. In addition, the DC50 in test [1] and in test [2] was 1 to 10 nM each time.
For `C[C@@H]1CNc2c(sc3ccc4nc(-c5ccc(CNC(=O)CCCCCCCCCc6cccc7c6n(C)c(=O)n7C6CCC(=O)NC6=O)cc5)ccc4c23)C(=O)N1` (stereo partly shown) [Compound I-86], in test [1], the Dmax was above 75% and the DC50 lay within 1 to 10 nM. Also, in test [2], the Dmax is above 75% and the DC50 lay within 1 to 10 nM.
As to `C[C@@H]1CNc2c(sc3ccc4nc(-c5ccc(CNC(=O)CCCCCCCc6ccc7c(c6)n(C)c(=O)n7C6CCC(=O)NC6=O)cc5)ccc4c23)C(=O)N1` (stereo partly shown) [Compound I-87], in test [1], the Dmax is above 75% and the DC50 was 1 to 10 nM. In test [2], the Dmax was above 75% and the DC50 lay in the range of 1 to 10 nM.
Take `C[C@@H]1CNc2c(sc3ccc4nc(-c5ccc(CNC(=O)CCCCCCCc6cccc7c6n(C)c(=O)n7C6CCC(=O)NC6=O)cc5)ccc4c23)C(=O)N1` (stereo partly shown) [Compound I-88]: in test [1], the Dmax is above 75% and the DC50 was in the range of 1 to 10 nM. Moreover, in test [2], the Dmax was above 75% and the DC50 lay within 1 to 10 nM.
For `C[C@@H]1CNc2c(sc3ccc4nc(-c5ccc(CNC(=O)COCCOCCOCCOCCc6cccc7c6n(C)c(=O)n7C6CCC(=O)NC6=O)cc5)ccc4c23)C(=O)N1` (stereo partly shown) [Compound I-92], the Dmax in test [1] and in test [2] was above 75% in each case. In addition, the DC50 in test [1] and in test [2] was 1 to 10 nM in each case.
In the case of `C[C@@H]1CNc2c(sc3ccc4nc(-c5cccc(N6CCN(CCCc7cccc8c7n(C)c(=O)n8C7CCC(=O)NC7=O)CC6)c5)ccc4c23)C(=O)N1` (stereo partly shown) [Compound I-93], in test [1], the Dmax was above 75% and the DC50 lay in the range of 1 to 10 nM. In test [2], the Dmax was above 75% and the half-maximal degradation concentration (DC50) was below 1 nM.
Consider `C[C@@H]1CNc2c(sc3ccc4nc(-c5cccc(N6CCN(CCCCCc7cccc8c7n(C)c(=O)n8C7CCC(=O)NC7=O)CC6)c5)ccc4c23)C(=O)N1` (stereo partly shown) [Compound I-94], for which, in test [1], the Dmax was above 75% and the DC50 is 1 to 10 nM. Besides, in test [2], the Dmax is above 75% and the DC50 was below 1 nM.
For `C[C@@H]1CNc2c(sc3ccc4nc(-c5cccc(N6CCN(CCCCCCCc7cccc8c7n(C)c(=O)n8C7CCC(=O)NC7=O)CC6)c5)ccc4c23)C(=O)N1` (stereo partly shown) [Compound I-95], the Dmax in test [1] and in test [2] was above 75% each time. Besides, the DC50 in test [1] is 1 to 10 nM; in test [2], below 1 nM.
With `C[C@@H]1CNc2c(sc3ccc4nc(-c5cccc(N6CCC(CN7CCC(c8cccc9c8n(C)c(=O)n9C8CCC(=O)NC8=O)CC7)CC6)c5)ccc4c23)C(=O)N1` (stereo partly shown) [Compound I-96], in test [1], the Dmax is above 75% and the DC50 is 1 to 10 nM. In test [2], the Dmax was above 75% and the DC50 was below 1 nM.

Broadly, the Dmax is the greatest extent of degradation seen. Broadly, the DC50 is the concentration giving 50% degradation.
